Source: publication PMC11387443, “Determination of bisphosphonate properties in terms of bioavailability, bone affinity, and cytotoxicity” (Pharmacological Reports, 2024)
Entries after “also recorded” stand apart in the source; their conditions may differ.

Columns and labels:
[1] = Sorption of bisphosphonates on hydroxyapatite in SBF; assay type: physicochemical; conditions: 0.7 mM, 30 mg HA; for affinity for HA (sorption), comparison in words: 10 mL SBF, 1, 2 and 48 h
Method: The first step was to investigate the effect of concentration on the RSD sorption on HA. The sorption capacity was examined for 4 concentrations (0.2, 0.5, 0.7 and 1 mM). 30 mg (+ /− 0.1 mg) of HA was weighed into polypropylene tubes. Subsequently, 10 mL of Simulated Body Fluid (SBF) (Table 2) containing BPs was poured into the tubes and placed in a shaker for 1 h, 2 h, and 48 h. Sorption of BP compounds on HA was measured using a UV–VIS spectrophotometer after 5 min of centrifugation (speed 4000 rpm). The compound concentrations were measured by Multiskan152 Sky Microplate Spectrophotometer (Thermo Fisher Scientific, Waltham, MA, USA). Next, for one concentration (0.7 mM), sorption studies of all BPs were conducted in the same manner as indicated above for RSD. The measurements were conducted in the range of 220–400 nm. The quantitative assessment was performed based on the calibration curve method at the absorbance maximum for each BP (absorption properties of the tested compounds are summarized in Table 3).

[2] = tested on: Lactobacillus paracasei PCM 3039; assay: Bacterial cell membrane permeability (Crystal Violet uptake); assay type: cell-based; conditions: 0.2 mg mL^−1 BP, 24 h; for Crystal Violet uptake (cell membrane permeability): Ctrl 33.4 ± 8.0%
Method: (§1) Lactobacillus paracasei PCM 3039 used in the experiments was purchased from the Polish Collection of Microorganisms (Wroclaw, Poland). The liquid cultures were composed of the minimal medium (10% solution of MRS Broth in Dulbecco’s Phosphate Buffered Saline (DPBS)), the inoculum, and a BP stock solution in water (initial concentration of BPs in each culture was 0.2 mg mL^−1). The bacterial inoculum was prepared from the broth cultures incubated overnight at 37 °C and washed twice with a sterile medium. The initial cell concentration in each culture was adjusted to 1–10^8 cfu mL^−1. The reference cultures without the addition of BPs (denoted as Ctrl) and the abiotic control samples with the addition of pure minimal medium instead of bacterial inoculum were carried out. All samples were incubated at 36 °C for 24 h with shaking (150 rpm). The effect of BPs on the properties of bacterial cells was also evaluated. The experiments performed include (i) modifications of the bacterial cell membrane permeability—the measurements were based on the Crystal Violet uptake by the cells, (ii) modifications of the bacterial cell wall hydrophobicity, based on the procedure described previously. Relative metabolic activity of cells treated with the compounds in question measured with the colorimetric test AlamarBlue® Cell Viability Assay.

[3] = set-up: method as in PMID 18056045; conditions: cited from earlier work
[4] = tested on: Lactobacillus paracasei PCM 3039; assay: Bacterial cell wall hydrophobicity (Congo Red binding); assay type: cell-based; conditions: 0.2 mg mL^−1 BP, 24 h; Ctrl 39.7 ± 8.0%
Method: as §1

[5] = tested on: Lactobacillus paracasei PCM 3039; assay: Relative metabolic activity (AlamarBlue Cell Viability Assay); assay type: cell-based; conditions: 0.2 mg mL^−1 BP, relative to control group set at 100%
Method: as §1

[6] = Parallel artificial membrane permeability assay (PAMPA); assay type: in vitro ADME; conditions: 175 μM in PBS pH 7.4, 5 h; for PAMPA permeability, comparison in words: room temperature
Method: A parallel artificial membrane permeability assay (PAMPA) (Corning® Gentest™ Pre-coated PAMPA Plate System Gentest, USA) was prepared according to the recommended protocol. 96-well PAMPA plate was heated to room temperature for at least 30 min. Compound solutions were prepared in buffer (175 μM in PBS, pH 7.4). 300 μL of the BP solution was added to each donor plate well, and 200 μL of buffer (PBS, pH 7.4) was added to each acceptor plate. The filter plate (acceptor plate) was then placed on the receiver plate (donor plane) and the plate assembly was incubated at room temperature for 5 h. The compound amounts were measured by Multiskan152 SkyMicroplate Spectrophotometer (Thermo Fisher Scientific, Waltham, USA). The permeability of the BPs was calculated using the following formula (Eq. 1)1 Pe=-In[1-CA(t)/Cequilibrium]/A∗(1/VD+1/VA)∗t where Pe is the permeability (cm s^−1), Cequilibrium is [CD(t) × VD + CA(t) × VA]/(VD + VA), CD(t) indicates the compound concentration in donor well at time t (mM), CA(t) indicates the compound concentration in acceptor well at time t (mM), VD is the donor well volume (0.3 mL), VA is the acceptor well volume (0.2 mL), t is the incubation time (18000 s), and A is the effective filter area (0.3 cm^2).

[7] = set-up: method as in PMID 34277124; conditions: cited from earlier work
[8] = set-up: method as in PMID 26542347; conditions: in vitro artificial intestinal membrane; cited from earlier work
[9] = tested on: Caco-2 cell monolayer; set-up: method as in PMID 26542347; conditions: cited from earlier work
[10] = set-up: method as in PMID 32387834; conditions: oral; cited from earlier work
[11] = tested on: Lactobacillus paracasei PCM 3039; assay: Growth curve of L. paracasei (OD600); assay type: cell-based; conditions: 0.2 mg mL^−1 BP, 24 h
Method: Lactobacillus paracasei PCM 3039 used in the experiments was purchased from the Polish Collection of Microorganisms (Wroclaw, Poland). The liquid cultures were composed of the minimal medium (10% solution of MRS Broth in Dulbecco’s Phosphate Buffered Saline (DPBS)), the inoculum, and a BP stock solution in water (initial concentration of BPs in each culture was 0.2 mg mL^−1). The bacterial inoculum was prepared from the broth cultures incubated overnight at 37 °C and washed twice with a sterile medium. The initial cell concentration in each culture was adjusted to 1–10^8 cfu mL^−1. The reference cultures without the addition of BPs (denoted as Ctrl) and the abiotic control samples with the addition of pure minimal medium instead of bacterial inoculum were carried out. All samples were incubated at 36 °C for 24 h with shaking (150 rpm). The growth of cells treated with BPs as well as control cells was monitored by measuring the optical density at the wavelength of 600 nm (OD600) as described by. The growth curve measurements were performed with a microplate reader Multiskan 152 Sky (Thermo Fisher Scientific, Waltham, MA, USA). 200 μL of the prepared bacterial cultures were transferred to the 96-well clear bottom sterile microplates wells. The plates were maintained at 37 °C with pulse shaking. The OD600 of each well was read every 10 min for 24 h.

SMILES | affinity for HA (sorption), comparison in words [1] | change in membrane permeability in comparison with RSD [2] | Congo Red Binding (cell wall hydrophobicity) [4] [%] | Crystal Violet uptake (cell membrane permeability) [2] [%] | AlamarBlue Reduction (relative metabolic activity) [5] | also measured
Cc1cc(C)nc(NC(P(=O)(O)O)P(=O)(O)O)c1 [BP5, (4,6-dimethyl-2-pyridinyl)amino-methylene-1,1-bisphosphonic acid] | lower affinity | significant decrease | – | – | – | –
O=P(O)(O)C(Cl)(Cl)P(=O)(O)O [clodronate] | – | – | – | – | – | urinary excretion 24 h after the first dose [3]: 73%
O=P(O)(O)C(Nc1cccc(O)n1)P(=O)(O)O [BP11, (6-hydroksy-2-pyridinyl)amino-methylene-1,1-bisphosphonic acid] | highest sorption | significant decrease | 35.2 ± 6.1 | 30.9 ± 6.4 | 60.4 ± 3.4% | PAMPA permeability, comparison in words [6]: highest permeability among all analyzed BPs
O=P(O)(O)C(Nc1ccccn1)P(=O)(O)O [BP1, 2-pyridinylaminomethylene-1,1-bisphosphonic acid] | slightly higher affinity for HA than RSD | significant decrease | – | – | approximately 154.0% | sorption and desorption on polymer-ceramic materials [7]: high sorption levels on polymer-ceramic materials, followed by extensive desorption
Cc1ccnc(NC(P(=O)(O)O)P(=O)(O)O)c1 [BP3, (4-methyl-2-pyridinyl)aminomethylene-1,1-bisphosphonic acid] | – | significant decrease | – | – | – | –
O=P(O)(O)C(Nc1ccc(I)cn1)P(=O)(O)O [BP6, (5-iodo-2-pyridinyl)amino-methylene-1,1-bisphosphonic acid] | slightly higher affinity for HA than RSD | – | – | – | – | –
O=P(O)(O)C(O)(Cn1ccnc1)P(=O)(O)O [Zoledronate, zoledronic acid] | – | – | – | – | – | permeability Pe [8]: Not detected; apparent permeability coefficient Papp [9]: 2.72 ± 0.868 (× 10^−6) cm s^−1; urinary excretion 24 h after the first dose [3]: 38%
O=P(O)(O)C(Nc1cccnc1Cl)P(=O)(O)O [BP10] | – | – | 86.4 ± 1.7 | 60.6 ± 8.7 | – | –
O=P(O)(O)C(Nc1ccc(Cl)cn1)P(=O)(O)O [BP8, (5-chloro-2-pyridinyl)amino-methylene-1,1-bisphosphonic acid] | stronger affinity for HA than RSD | – | 82.1 ± 1.7 | – | – | drug concentration in the acceptor plate relative to RSD [6]: over twice as high as RSD; PAMPA permeability, comparison in words [6]: higher than twice as much as BP9 permeability; also recorded: highest permeability among all analyzed BPs
O=P(O)(O)C(Nc1ccc(Br)cn1)P(=O)(O)O [BP7, (5-bromo-2-pyridinyl)amino-methylene-1,1-bisphosphonic acid] | slightly higher affinity for HA than RSD | significant decrease | 45.0 ± 5.8 | 30.6 ± 6.0 | – | drug concentration in the acceptor plate relative to RSD [6]: over twice as high as RSD
O=P(O)(O)C(Nc1nc2ccccc2s1)P(=O)(O)O [BP12, N-(1,3-benzothiazol-2-yl)amino-methylene-1,1-bisphosphonic acid] | lower affinity for HA compared to RSD and BP1 | – | – | – | – | sorption and desorption on polymer-ceramic materials [7]: high sorption levels on polymer-ceramic materials, followed by extensive desorption
O=P(O)(O)C(O)(Cc1cccnc1)P(=O)(O)O [RSD, Risedronate] | – | – | – | – | – | sorption on HA ([1]; 10 mL SBF): approximately 50%; urinary excretion 24 h after the first dose [3]: 65%; bioavailability [10]: 0.62%; growth of L. paracasei (OD600 growth curve), in words [11]: initial fast cell growth was followed by a rapid decrease in cell density
O=P(O)(O)C(Nc1cccc(Cl)n1)P(=O)(O)O [BP9, (6-chloro-2-pyridinyl)amino-methylene-1,1-bisphosphonic acid] | – | – | 85.0 ± 2.4 | 61.9 ± 5.7 | 35.9 ± 16.7% | –
Cc1ccc(NC(P(=O)(O)O)P(=O)(O)O)nc1 [BP4, (5-methyl-2-pyridinyl)aminomethylene-1,1-bisphosphonic acid] | – | – | 89.3 ± 3.5 | 62.7 ± 8.4 | approximately 154.0% | drug concentration in the acceptor plate relative to RSD [6]: over twice as high as RSD; PAMPA permeability, comparison in words [6]: higher permeability than the other two compounds
Cc1cccnc1NC(P(=O)(O)O)P(=O)(O)O [BP2, (3-methyl-2-pyridinyl)aminomethylene-1,1-bisphosphonic acid] | lower affinity | – | – | – | approximately 154.0% | sorption and desorption on polymer-ceramic materials [7]: high sorption levels on polymer-ceramic materials, followed by extensive desorption; drug concentration in the acceptor plate relative to RSD [6]: over twice as high as RSD; PAMPA permeability, comparison in words [6]: higher permeability than the other two compounds
